Measured values reported in PubChem BioAssay AID1259407 (Chemical Carcinogenesis Research Information System (CCRIS), 2018).
Calls of active or inactive are those of the source. How the calls were made is not given here.

System: CCRIS mutagenicity, Ames/micronucleus/aberration tests
Test: CCRIS mutagenicity studies
[1] = Test System: AMES SALMONELLA TYPHIMURIUM, Strain/Indicator: TA100, Metabolic Activation: NONE, Method: PREINCUBATION
[2] = Test System: AMES SALMONELLA TYPHIMURIUM, Strain/Indicator: TA100, Metabolic Activation: NONE, Method: STANDARD PLATE
[3] = Test System: AMES SALMONELLA TYPHIMURIUM, Strain/Indicator: TA98, Metabolic Activation: NONE, Method: PREINCUBATION

CCCC=O
mutagenic call (End Point: IN VITRO CHROMOSOMAL ABERRATIONS, Test System: CHINESE HAMSTER OVARY CELLS, Metabolic Activation: NONE): inactive; negative
mutagenic call (End Point: IN VITRO CHROMOSOMAL ABERRATIONS, Test System: CHINESE HAMSTER OVARY CELLS, Metabolic Activation: RAT, LIVER, S-9, AROCLOR 1254): inactive; negative
mutagenic call (End Point: In vitro chromosomal aberrations, Test System: Chinese hamster lung (CHL/IU) cells, Metabolic Activation: Rat, Liver, S9, Phenobarbital and 5,6-benzoflavone): active; positive (structural changes). ploidy not dose related.
mutagenic call [1]: inactive; negative
mutagenic call (Test System: AMES SALMONELLA TYPHIMURIUM, Strain/Indicator: TA100, Metabolic Activation: RAT LIVER S-9, AROCLOR 1254, Method: PREINCUBATION): inactive; negative
mutagenic call (Test System: AMES SALMONELLA TYPHIMURIUM, Strain/Indicator: TA102, Metabolic Activation: NONE, Method: PREINCUBATION): inactive; negative
mutagenic call (Test System: AMES SALMONELLA TYPHIMURIUM, Strain/Indicator: TA102, Metabolic Activation: RAT LIVER S-9, AROCLOR 1254, Method: PREINCUBATION): inactive; negative
mutagenic call (Test System: AMES SALMONELLA TYPHIMURIUM, Strain/Indicator: TA104, Metabolic Activation: NONE, Method: PREINCUBATION): inactive; negative
mutagenic call (Test System: AMES SALMONELLA TYPHIMURIUM, Strain/Indicator: TA104, Metabolic Activation: RAT LIVER S-9, AROCLOR 1254, Method: PREINCUBATION): inactive; negative
mutagenic call (Test System: CHINESE HAMSTER V-79, Strain/Indicator: V-79/6-THIOGUANINE (HGPRT), Metabolic Activation: NONE, Method: REPLATING): active; positive
mutagenic call (Test System: CHINESE HAMSTER V-79, Strain/Indicator: V-79/OUABAIN (NA/K), Metabolic Activation: NONE, Method: REPLATING): active; positive
mutagenic call (Test System: UDS HUMAN HEPATOCYTES, Strain/Indicator: THY INCORP, Metabolic Activation: NONE, Method: AUTORADIOGRAPHY): inactive; negative
mutagenic call (Test System: UDS RAT HEPATOCYTES, Strain/Indicator: THY INCORP, Metabolic Activation: NONE, Method: AUTORADIOGRAPHY): active; positive

ClCc1c2ccccc2cc2c1ccc1ccccc12
mutagenic call [2]: active; positive

Clc1cccc(-c2ccc(Cl)c(Cl)c2Cl)c1Cl
mutagenic call (Test System: AMES SALMONELLA TYPHIMURIUM, Strain/Indicator: TA97, Metabolic Activation: HAMSTER, LIVER, S-9, AROCLOR 1254 (10 OR 30%), Method: PREINCUBATION): inactive; negative
mutagenic call (Test System: AMES SALMONELLA TYPHIMURIUM, Strain/Indicator: TA97, Metabolic Activation: NONE, Method: PREINCUBATION): inactive; negative
mutagenic call (Test System: AMES SALMONELLA TYPHIMURIUM, Strain/Indicator: TA97, Metabolic Activation: RAT, LIVER, S-9, AROCLOR 1254 (10 OR 30%), Method: PREINCUBATION): inactive; negative
mutagenic call (Test System: AMES SALMONELLA TYPHIMURIUM, Strain/Indicator: TA98, Metabolic Activation: HAMSTER, LIVER, S-9, AROCLOR 1254 (10 OR 30%), Method: PREINCUBATION): inactive; negative
mutagenic call [3]: inactive; negative
mutagenic call (Test System: AMES SALMONELLA TYPHIMURIUM, Strain/Indicator: TA98, Metabolic Activation: RAT, LIVER, S-9, AROCLOR 1254 (10 OR 30%), Method: PREINCUBATION): inactive; negative
mutagenic call (Test System: AMES SALMONELLA TYPHIMURIUM, Strain/Indicator: TA100, Metabolic Activation: HAMSTER, LIVER, S-9, AROCLOR 1254 (10 OR 30%), Method: PREINCUBATION): inactive; negative
mutagenic call [1]: inactive; negative
mutagenic call (Test System: AMES SALMONELLA TYPHIMURIUM, Strain/Indicator: TA100, Metabolic Activation: RAT, LIVER, S-9, AROCLOR 1254 (10 OR 30%), Method: PREINCUBATION): inactive; negative
mutagenic call (Test System: AMES SALMONELLA TYPHIMURIUM, Strain/Indicator: TA1535, Metabolic Activation: HAMSTER, LIVER, S-9, AROCLOR 1254 (10 OR 30%), Method: PREINCUBATION): inactive; negative
mutagenic call (Test System: AMES SALMONELLA TYPHIMURIUM, Strain/Indicator: TA1535, Metabolic Activation: NONE, Method: PREINCUBATION): inactive; negative
mutagenic call (Test System: AMES SALMONELLA TYPHIMURIUM, Strain/Indicator: TA1535, Metabolic Activation: RAT, LIVER, S-9, AROCLOR 1254 (10 OR 30%), Method: PREINCUBATION): inactive; negative
mutagenic call (Test System: AMES SALMONELLA TYPHIMURIUM, Strain/Indicator: TA1537, Metabolic Activation: HAMSTER, LIVER, S-9, AROCLOR 1254 (10 OR 30%), Method: PREINCUBATION): inactive; negative
mutagenic call (Test System: AMES SALMONELLA TYPHIMURIUM, Strain/Indicator: TA1537, Metabolic Activation: NONE, Method: PREINCUBATION): inactive; negative
mutagenic call (Test System: AMES SALMONELLA TYPHIMURIUM, Strain/Indicator: TA1537, Metabolic Activation: RAT, LIVER, S-9, AROCLOR 1254 (10 OR 30%), Method: PREINCUBATION): inactive; negative
mutagenic call (Test System: E. COLI, Strain/Indicator: WP2 UVRA, Metabolic Activation: HAMSTER, LIVER, S-9, AROCLOR 1254, Method: STANDARD PLATE): inactive; negative
mutagenic call (Test System: E. COLI, Strain/Indicator: WP2 UVRA, Metabolic Activation: HAMSTER, LIVER, S-9, Method: STANDARD PLATE): inactive; negative
mutagenic call (Test System: E. COLI, Strain/Indicator: WP2 UVRA, Metabolic Activation: MOUSE, LIVER, S-9, AROCLOR 1254, Method: STANDARD PLATE): inactive; negative
mutagenic call (Test System: E. COLI, Strain/Indicator: WP2 UVRA, Metabolic Activation: MOUSE, LIVER, S-9, Method: STANDARD PLATE): inactive; negative
mutagenic call (Test System: E. COLI, Strain/Indicator: WP2 UVRA, Metabolic Activation: NONE, Method: STANDARD PLATE): inactive; negative
mutagenic call (Test System: E. COLI, Strain/Indicator: WP2 UVRA, Metabolic Activation: RAT, LIVER, S-9, AROCLOR 1254, Method: STANDARD PLATE): inactive; negative
mutagenic call (Test System: E. COLI, Strain/Indicator: WP2 UVRA, Metabolic Activation: RAT, LIVER, S-9, Method: STANDARD PLATE): inactive; negative

Cc1cc(C(C#N)c2ccc(Cl)cc2)c(Cl)cc1NC(=O)c1cc(I)cc(I)c1O (centres undefined)
mutagenic call (End Point: In vivo chromosomal aberrations, Test System: Bone marrow cells, Species: Mouse, Strain/Sex: Swiss/Male, Route: Intraperitoneal): active; positive (structural changes)

CC(=O)N(O)c1ccc(/C=C\c2ccccc2)cc1
mutagenic call (Test System: UDS HUMAN FIBROBLASTS, Strain/Indicator: THY INCORP (NON-S-PHASE), Metabolic Activation: NONE, Method: AUTORADIOGRAPHY): active; positive

CN(C)c1ccc(C(=N)c2ccc(N(C)C)cc2)cc1
mutagenic call (Test System: AMES SALMONELLA TYPHIMURIUM, Strain/Indicator: TA97, Metabolic Activation: NONE, Method: STANDARD PLATE): inactive; negative
mutagenic call (Test System: AMES SALMONELLA TYPHIMURIUM, Strain/Indicator: TA97, Metabolic Activation: RAT, LIVER, S-9, AROCLOR 1254, Method: STANDARD PLATE): inactive; negative
mutagenic call (Test System: AMES SALMONELLA TYPHIMURIUM, Strain/Indicator: TA98, Metabolic Activation: HAMSTER, LIVER, S-9, AROCLOR 1254 (30%), Method: PREINCUBATION): active; positive
mutagenic call [3]: inactive; negative
mutagenic call (Test System: AMES SALMONELLA TYPHIMURIUM, Strain/Indicator: TA98, Metabolic Activation: NONE, Method: STANDARD PLATE): inactive; negative
mutagenic call (Test System: AMES SALMONELLA TYPHIMURIUM, Strain/Indicator: TA98, Metabolic Activation: RAT, LIVER, S-9, AROCLOR 1254 (30%), Method: PREINCUBATION): active; positive
mutagenic call (Test System: AMES SALMONELLA TYPHIMURIUM, Strain/Indicator: TA98, Metabolic Activation: RAT, LIVER, S-9, AROCLOR 1254, Method: STANDARD PLATE): inactive; negative
mutagenic call (Test System: AMES SALMONELLA TYPHIMURIUM, Strain/Indicator: TA100, Metabolic Activation: HAMSTER, LIVER, S-9, AROCLOR 1254 (30%), Method: PREINCUBATION): inactive; negative
mutagenic call [1]: inactive; negative
mutagenic call [2]: inactive; negative
mutagenic call (Test System: AMES SALMONELLA TYPHIMURIUM, Strain/Indicator: TA100, Metabolic Activation: RAT, LIVER, S-9, AROCLOR 1254 (30%), Method: PREINCUBATION): inactive; negative
mutagenic call (Test System: AMES SALMONELLA TYPHIMURIUM, Strain/Indicator: TA100, Metabolic Activation: RAT, LIVER, S-9, AROCLOR 1254, Method: STANDARD PLATE): inactive; negative
mutagenic call (Test System: AMES SALMONELLA TYPHIMURIUM, Strain/Indicator: TA1538, Metabolic Activation: HAMSTER, LIVER, S-9, AROCLOR 1254 (30%), Method: PREINCUBATION): active; positive
mutagenic call (Test System: AMES SALMONELLA TYPHIMURIUM, Strain/Indicator: TA1538, Metabolic Activation: RAT, LIVER, S-9, AROCLOR 1254 (30%), Method: PREINCUBATION): active; positive
mutagenic call (Test System: CHINESE HAMSTER V-79, Strain/Indicator: V-79/6-THIOGUANINE, Metabolic Activation: NONE, Method: SUSPENSION/PLATE): inactive; negative
mutagenic call (Test System: CHINESE HAMSTER V-79, Strain/Indicator: V-79/6-THIOGUANINE, Metabolic Activation: RAT, LIVER, S-9, PHENOBARBITAL AND BETA-NAPHTHOFLAVONE, Method: SUSPENSION/PLATE): active; positive
